Source: PubChem BioAssay AID192 (DTP/NCI, 2004)
“And” between values parts separate entries of the source, which are not always exact repeats. Equal entries are not always repeated. Toxic doses and inconclusive results are not listed. Rule for the calls: active = survival T/C of 150% or more; inactive = T/C below 125% in these data. Peptide text beside a SMILES is read from it. * marks the point of attachment. Trt = c1ccc(C(c2ccccc2)(c2ccccc2)*)cc1; Cbz = O=C(OCc1ccccc1)*

Test system: BDF1 mice, B16 melanoma ip, median survival T/C
Test: NCI In Vivo Anticancer Drug Screen. Data for tumor model B16 Melanoma (intraperitoneal) in B6D2F1 (BDF1) mice
Settings: endpoint: median survival time, higher = longer survival
Procedure, shortened: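 Each result divides a survival or tumor-size measurement in the compound-treated group by the same measurement in the vehicle group.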

[1] = dose: 50.0 mg/kg/injection, schedule: Q01DX009 (ip), vehicle: saline
[2] = dose: 200.0 mg/kg/injection, schedule: Q01DX009 (ip), vehicle: saline
[3] = dose: 50.0 mg/kg/injection, schedule: Q01DX009 (ip), vehicle: saline with Tween-80
[4] = dose: 12.5 mg/kg/injection, schedule: Q01DX009 (ip), vehicle: saline
[5] = dose: 25.0 mg/kg/injection, schedule: Q01DX009 (ip), vehicle: saline
[6] = dose: 100.0 mg/kg/injection, schedule: Q01DX009 (ip), vehicle: saline
[7] = dose: 100.0 mg/kg/injection, schedule: Q04DX003 (ip), vehicle: saline with Tween-80
[8] = dose: 200.0 mg/kg/injection, schedule: Q04DX003 (ip), vehicle: saline with Tween-80
[9] = dose: 200.0 mg/kg/injection, schedule: Q01DX009 (ip), vehicle: Klucel (hydroxypropylcellulose) (HPC)
[10] = dose: 400.0 mg/kg/injection, schedule: Q01DX009 (ip), vehicle: Klucel (hydroxypropylcellulose) (HPC)
[11] = dose: 50.0 mg/kg/injection, schedule: Q04DX003 (ip), vehicle: saline with Tween-80
[12] = dose: 25.0 mg/kg/injection, schedule: Q01DX009 (ip), vehicle: Klucel (hydroxypropylcellulose) (HPC)
[13] = dose: 50.0 mg/kg/injection, schedule: Q01DX009 (ip), vehicle: Klucel (hydroxypropylcellulose) (HPC)
[14] = dose: 100.0 mg/kg/injection, schedule: Q01DX009 (ip), vehicle: Klucel (hydroxypropylcellulose) (HPC)
[15] = dose: 12.5 mg/kg/injection, schedule: Q01DX009 (ip), vehicle: Klucel (hydroxypropylcellulose) (HPC)

Measured: T/C

CO[C@H]1/C=C/O[C@@]2(C)Oc3c(C)c(O)c4c(O)c(c(/C=N/N5C(C)CN(Cc6ccccc6)CC5C)c(O)c4c3C2=O)NC(=O)/C(C)=C\C=C\[C@H](C)[C@H](O)[C@@H](C)[C@@H](O)[C@@H](C)[C@H](OC(C)=O)[C@@H]1C (stereo partly drawn)
inactive: dose: 8.0 mg/kg/injection, schedule: Q03HX008 (ip), vehicle: clinical formulation 94 % of control | dose: 8.0 mg/kg/injection, schedule: Q03HX024 (ip), vehicle: clinical formulation 88 % of control | dose: 16.0 mg/kg/injection, schedule: Q03HX008 (ip), vehicle: clinical formulation 90 % of control | dose: 25.0 mg/kg/injection, schedule: Q02DX Z (oral), vehicle: Klucel (hydroxypropylcellulose) (HPC) 98 % of control | dose: 32.0 mg/kg/injection, schedule: Q03HX024 (ip), vehicle: clinical formulation 88 % of control | [1] 123 % of control | dose: 50.0 mg/kg/injection, schedule: Q02DX Z (oral), vehicle: Klucel (hydroxypropylcellulose) (HPC) 116 % of control | dose: 64.0 mg/kg/injection, schedule: Q04DX005 (ip), vehicle: clinical formulation 93 % of control | dose: 64.0 mg/kg/injection, schedule: Q08DX003 (ip), vehicle: clinical formulation 91 % of control | dose: 100.0 mg/kg/injection, schedule: Q02DX Z (oral), vehicle: Klucel (hydroxypropylcellulose) (HPC) 103 % of control | [2] 110 % of control | dose: 200.0 mg/kg/injection, schedule: Q02DX Z (oral), vehicle: Klucel (hydroxypropylcellulose) (HPC) 114 % of control | dose: 256.0 mg/kg/injection, schedule: Q01DX001 (ip), vehicle: clinical formulation 86 % of control | dose: 400.0 mg/kg/injection, schedule: Q02DX Z (oral), vehicle: Klucel (hydroxypropylcellulose) (HPC) 88 % of control | dose: 800.0 mg/kg/injection, schedule: Q02DX Z (oral), vehicle: Klucel (hydroxypropylcellulose) (HPC) 113 % of control | dose: 1600.0 mg/kg/injection, schedule: Q02DX Z (oral), vehicle: Klucel (hydroxypropylcellulose) (HPC) 97 % of control

COC1=CC(=O)C(OC)=C(OC)C1=O
inactive: dose: 3.12 mg/kg/injection, schedule: Q01DX009 (ip), vehicle: saline with Tween-80 98 % of control | dose: 6.25 mg/kg/injection, schedule: Q01DX009 (ip), vehicle: saline with Tween-80 98 % of control | dose: 12.5 mg/kg/injection, schedule: Q01DX009 (ip), vehicle: saline with Tween-80 100 % of control | dose: 25.0 mg/kg/injection, schedule: Q01DX009 (ip), vehicle: saline with Tween-80 101 % of control | [3] 93 % of control

Nc1nc(SCc2ccccc2)c2[nH]cnc2n1
inactive: dose: 3.13 mg/kg/injection, schedule: Q01DX009 (ip), vehicle: saline sonified 95 % of control | dose: 6.25 mg/kg/injection, schedule: Q01DX009 (ip), vehicle: saline sonified 100 % of control | dose: 12.5 mg/kg/injection, schedule: Q01DX009 (ip), vehicle: saline sonified 93 % of control | dose: 25.0 mg/kg/injection, schedule: Q01DX009 (ip), vehicle: saline sonified 97 % of control

COc1cc2c3c(c1)/C(=N\NC(N)=O)CCN3CCC2
inactive: dose: 100.0 mg/kg/injection, schedule: Q04DX003 (ip), vehicle: Klucel (hydroxypropylcellulose) (HPC) 97 % of control | dose: 200.0 mg/kg/injection, schedule: Q04DX003 (ip), vehicle: Klucel (hydroxypropylcellulose) (HPC) 100 % of control | dose: 400.0 mg/kg/injection, schedule: Q04DX003 (ip), vehicle: Klucel (hydroxypropylcellulose) (HPC) 100 % of control

Cc1cc(N(CCCl)CCCl)ccc1C=Nc1cccnc1
inactive: [3] 119 % of control | dose: 100.0 mg/kg/injection, schedule: Q01DX009 (ip), vehicle: saline with Tween-80 124 % of control

OCC12COCN1COC2
inactive: [4] 117 % of control | [5] 119 % of control | [1] 111 % of control | [6] 117 % of control | [2] 119 % of control

CCN(C(=O)Nc1ccccc1Cl)c1ccccc1
inactive: [7] 94 % of control | [8] 100 % of control | dose: 400.0 mg/kg/injection, schedule: Q04DX003 (ip), vehicle: saline with Tween-80 91 % of control

OCC1OC(n2cnc3c(NO)ncnc32)C(O)C1O (stereo not drawn)
inactive: [9] 109 % of control | [10] 111 % of control

O=C(COc1ccc(Cl)cc1)Nc1cccc(C(F)(F)F)c1
inactive: dose: 5.0 mg/kg/injection, schedule: Q01DX009 (ip), vehicle: Klucel (hydroxypropylcellulose) (HPC) 117 % of control | dose: 9.4 mg/kg/injection, schedule: Q01DX009 (ip), vehicle: saline with Tween-80 93 % of control | dose: 10.0 mg/kg/injection, schedule: Q01DX009 (ip), vehicle: Klucel (hydroxypropylcellulose) (HPC) 101 % of control | dose: 37.5 mg/kg/injection, schedule: Q01DX009 (ip), vehicle: saline with Tween-80 90 % of control and 91 % of control

CCCC(C(=O)OCCN(CC)CC)(c1ccccc1)c1ccccc1
inactive: dose: 3.12 mg/kg/injection, schedule: Q01DX009 (ip), vehicle: saline 95 % of control | dose: 6.25 mg/kg/injection, schedule: Q01DX009 (ip), vehicle: saline 102 % of control | [4] 100 % of control | [5] 97 % of control

NCC1OC(OC2C(N)CC(N)C(O)C2OC2OC(CO)C(O)C2O)C(N)C(O)C1O (stereo not drawn)
inactive: [4] 93 % of control | [5] 100 % of control | [1] 93 % of control | [6] 96 % of control

O=C(Nc1ccccc1)OCC(CN1CCCCC1)OC(=O)Nc1ccccc1 (stereo not drawn)
inactive: [11] 104 % of control | [7] 102 % of control | [8] 100 % of control

Nc1ccc2nc3ccc(=O)cc-3n(-c3ccccc3)c2c1
inactive: dose: 0.5 mg/kg/injection, schedule: Q01DX009 (ip), vehicle: saline 109 % of control | dose: 1.0 mg/kg/injection, schedule: Q01DX009 (ip), vehicle: saline 104 % of control | dose: 2.5 mg/kg/injection, schedule: Q01DX009 (ip), vehicle: saline 111 % of control | dose: 5.0 mg/kg/injection, schedule: Q01DX009 (ip), vehicle: saline 104 % of control | dose: 10.0 mg/kg/injection, schedule: Q01DX009 (ip), vehicle: saline 104 % of control

Cc1cc(C)c(NC(=O)Nc2ccccc2)c(C)c1
inactive: [12] 94 % of control | [13] 94 % of control | [14] 108 % of control

CC(=O)O[C@H]1CC[C@H]2[C@@H]3CC[C@H]4CC=C(C#N)C[C@]4(C)[C@H]3CC[C@]12C
inactive: [15] 86 % of control | [12] 94 % of control | [13] 88 % of control

O=C1NC(c2ccccc2)(c2ccccc2)C(=O)N1SC(Cl)(Cl)Cl
inactive: dose: 3.12 mg/kg/injection, schedule: Q01DX009 (ip), vehicle: Klucel (hydroxypropylcellulose) (HPC) 106 % of control | dose: 6.25 mg/kg/injection, schedule: Q01DX009 (ip), vehicle: Klucel (hydroxypropylcellulose) (HPC) 92 % of control | [15] 103 % of control | [12] 97 % of control | [13] 91 % of control

O=C(CCCl)NC(Cc1ccccc1)c1ccccc1 (stereo not drawn)
inactive: [14] 110 % of control | [9] 96 % of control | [10] 96 % of control

COC(=O)C(CSC(c1ccccc1)(c1ccccc1)c1ccccc1)NC(=O)C(CC(N)=O)NC(=O)OCc1ccccc1 (stereo not drawn) (Cbz-Asn-Cys(Trt)-OMe; configuration not given here)
inactive: dose: 12.5 mg/kg/injection, schedule: Q01DX009 (ip), vehicle: distilled water + Tween-80 108 % of control and 110 % of control | dose: 25.0 mg/kg/injection, schedule: Q01DX009 (ip), vehicle: distilled water + Tween-80 102 % of control and 117 % of control | dose: 50.0 mg/kg/injection, schedule: Q01DX009 (ip), vehicle: distilled water + Tween-80 109 % of control | dose: 100.0 mg/kg/injection, schedule: Q01DX009 (ip), vehicle: distilled water + Tween-80 113 % of control | dose: 200.0 mg/kg/injection, schedule: Q01DX009 (ip), vehicle: distilled water + Tween-80 116 % of control

COc1cccc(OC)c1C(c1c(OC)cccc1OC)c1c(OC)cccc1OC
inactive: dose: 25.0 mg/kg/injection, schedule: Q04DX003 (ip), vehicle: saline with Tween-80 120 % of control | [11] 108 % of control | [7] 114 % of control

Cc1ccc(C)c(NC(=O)Nc2ccccc2)c1
inactive: [14] 96 % of control | [9] 110 % of control | [10] 96 % of control

CC(C)N(C(=O)Nc1ccccc1Cl)c1ccccc1
inactive: [14] 89 % of control | [9] 91 % of control | [10] 92 % of control

O=c1oc(-c2ccc3c(c2)OCO3)nc2ccccc12
inactive: [13] 98 % of control | [14] 99 % of control | [9] 91 % of control

O=C1NC(=O)/C(=C/c2ccccc2)N1
inactive: [14] 100 % of control | [9] 107 % of control
